Like-named read-outs stand apart in the source and are kept apart here.

The source of these data is US8378117B2 (priority 2005, dated 2013).

The target in one assay is T1, CB1 receptor (Homo sapiens, UniProt P21554).
T1 construct: expressed in transfected cells
Kind of assay: Modified functional cell-based assay (Beta-Glo luminescence), CB1 receptor. How it is done: Additional functional activity studies were performed with minor modifications. Beta galactosidase activity was quantified using the luminescent Beta-Glo Assay System (Promega Corp. Madison, Wis.) and an Orion Microplate Luminometer (Berthold Detection Systems, Oak Ridge, Tenn.). The EC50 values were calculated using GraphPad Prism and a four parameter logistic equation.
The functional activity EC50 value for compounds tested (shown in Table 8) were obtained from studies in which varying compound concentrations were used. With the exception of Cpd 237 (n=3), one sample for each compound was tested.

The target of another assay is T2, CB2 receptor (Homo sapiens, UniProt P34972).
T2 construct: expressed in transfected cells
T2 sequence (P34972 whole entry): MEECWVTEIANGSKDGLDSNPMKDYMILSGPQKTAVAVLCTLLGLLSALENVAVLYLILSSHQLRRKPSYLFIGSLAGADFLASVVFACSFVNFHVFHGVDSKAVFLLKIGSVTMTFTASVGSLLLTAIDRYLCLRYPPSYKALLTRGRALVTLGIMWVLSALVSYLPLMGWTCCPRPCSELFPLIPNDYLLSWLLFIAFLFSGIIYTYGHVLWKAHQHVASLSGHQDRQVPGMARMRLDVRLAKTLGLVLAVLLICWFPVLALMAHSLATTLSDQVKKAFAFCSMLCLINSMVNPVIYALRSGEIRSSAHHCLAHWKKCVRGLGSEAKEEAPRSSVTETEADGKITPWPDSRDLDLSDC
In words: Binding assay for CB2 agonists or inverse agonists (SK-N-MC membranes, [3H]-CP-55,940). To be noted: for IC50: Cannabinoid CB2 Receptor Binding IC50, calculated by linear regression from percent inhibition at various test concentrations. The essentials: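 Membranes from SK-N-MC cells stably expressing human CB2 were incubated with radioligand and test compounds for 90 min at 30 °C in Tris-HCl buffer, pH 7.5, with MgCl2, EDTA and fatty-acid-free BSA. Filter-bound radioactivity was counted; IC50 was derived by linear regression of percent inhibition.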

The next assay relates to Male CD-1 mice. In words: Oil of mustard induced colitis model. It is filed as in vivo. To be noted: Therapeutic Regimen, 5 mg/kg oral; 5 mg/kg. The source says:
In the distal colon, the oil of mustard colitis model is characterized by a discontinuous pattern of mucosal epithelial damage, submucosal edema, infiltration of inflammatory cells (including macrophages, neutrophils and lymphocytes) into the mucosa and submucosa, increased wet weight of the colon, shrinkage of the colon length, diarrhea and apparent inflammation (see, Kimball E. S., Palmer J. M., D'Andrea M. R., Homby P. J. and Wade P. R., Acute colitis induction by oil of mustard results in later development of an IBS-like accelerated upper GI transit in mice, Am. J Physiol. Gastrointest. Liver Physiol., 2005, 288: G 1266-1273).
Male CD-1 mice (Charles River Laboratories, Kingston, N.C.) (9-11 weeks old) and fresh oil of mustard (OM) (allyl isothiocyanate, 98% purity, Sigma-Aldrich St. Louis, Mo.) were used.
The mice (9 per treatment group) were briefly anesthetized with ketamine/xylasine (Sigma, St. Louis, Mo.) and a solution of 0.5% OM in 30% ethanol (50 μL) was administered intracolonically (to a depth of 4 cm) via syringe (equipped with a ball-tipped 22 G needle).
A test compound was orally administered one day prior to colitis induction for assessing a prophylactic regimen or one day post-induction for assessing a therapeutic regimen. A test compound was orally administered daily thereafter. Two days after OM administration, the last test compound dose was administered.
Three days after OM administration, the animals were sacrificed. The colons were resected, examined for signs of inflammation, weighed after removing fecal contents and the length from the aboral end of the cecum to the anus was measured. The fecal contents were examined for signs of diarrhea. The distal colon between the 1st and the 4th centimeter was removed and placed in 10% neutral buffered formalin for histological analysis.
The macroscopic observations of colon inflammation (a measure of colon damage), colon weight and length and stool consistency and appearance were assigned a score and used to evaluate colitis severity.
The four observation scores for each colon were combined, whereby a combined score of 0 represents a normal colon and a combined score of 15 represents a maximally affected colon. Statistical analyses were performed in Graphpad Prism 4.0 using ANOVA.
Histological analyses of tissues consisted of staining paraffin-embedded tissue sections with hematoxylin-eosin dye. The tissues were examined using light microscopy by an investigator who was blinded to the sample groups.
The microscopic observations of epithelial damage, cellular infiltration and damage or alteration of smooth muscle architecture (a measure of muscle damage) were assigned a score and used to evaluate colitis severity.
The scores for each colon were combined, whereby a combined score of 0 represents a normal colon and a combined score of 9 represents a maximally affected colon. Statistical analyses were performed in Graphpad Prism 4.0 using ANOVA.
The Macroscopic Score and Microscopic Score results for each treatment group in the prophylactic and therapeutic regimens were each combined into a mean score and expressed as % inhibition of colitis (% Inh). Test (#) represents the number of experiments at each dose level.

Where [1] appears, read: CB1 EC50 (Receptor Functional Activity), one sample per compound, Cpd 237 n=3.

T1 sequence (P21554 whole entry): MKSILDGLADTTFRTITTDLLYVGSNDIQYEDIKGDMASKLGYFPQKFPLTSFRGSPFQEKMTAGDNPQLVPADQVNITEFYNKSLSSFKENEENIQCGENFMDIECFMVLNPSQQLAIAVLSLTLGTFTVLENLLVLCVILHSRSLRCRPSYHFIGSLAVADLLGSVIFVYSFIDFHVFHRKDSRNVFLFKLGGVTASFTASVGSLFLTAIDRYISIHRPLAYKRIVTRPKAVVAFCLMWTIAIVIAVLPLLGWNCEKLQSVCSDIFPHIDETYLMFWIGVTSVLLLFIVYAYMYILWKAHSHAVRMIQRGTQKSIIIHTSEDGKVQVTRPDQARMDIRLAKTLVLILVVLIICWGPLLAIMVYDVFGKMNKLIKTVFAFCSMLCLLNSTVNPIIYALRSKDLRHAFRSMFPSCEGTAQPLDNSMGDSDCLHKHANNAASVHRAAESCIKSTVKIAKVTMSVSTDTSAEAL

By EC50 is commonly meant the midpoint of the concentration-response curve. For orientation: IC50 means the concentration that gives 50% inhibition. In the case of `O=C(N[C@H](CO)c1ccccc1)c1n[nH]c2c1CCCCC2Cc1cccc(Cl)c1` (single isomer, unassigned) [Cpd 230, (8R*)-8-(3-chloro-benzyl)-1,4,5,6,7,8-hexahydro-cycloheptapyrazole-3-carboxylic acid [(1S)-2-hydroxy-1-phenyl-ethyl]-amide], on CB1 receptor (setting [1]), the EC50 is more than 1000 nM. For the same compound, the IC50 at CB2 receptor was 40 nM. In addition, the “% Inh (Macro), % inhibition of colitis, macroscopic score” value in the assay with Male CD-1 mice is 25.9 ± 24.7%.
As to `O=C(N[C@H](CO)c1ccccc1)c1n[nH]c2c1CCCCC2Cc1cccc(Cl)c1` (single isomer, unassigned) [Cpd 231, (8S*)-8-(3-chloro-benzyl)-1,4,5,6,7,8-hexahydro-cycloheptapyrazole-3-carboxylic acid [(1S)-2-hydroxy-1-phenyl-ethyl]-amide], the EC50 on CB1 receptor (read-out: CB1 EC50 (Receptor Functional Activity), one sample per compound, Cpd 237 n=3) was more than 1000 nM. Besides, the IC50 on CB2 receptor is 200 nM. The “% Inh (Macro), % inhibition of colitis, macroscopic score” value in the assay on Male CD-1 mice is reported as −19 ± 20.7%.
The compound `C[C@H](NS(=O)(=O)/C=C/c1n[nH]c2c1CCCCC2Cc1cccc(F)c1)c1ccccc1` (single isomer, unassigned) [Cpd 232, (2E)-2-[(8R*)-8-(3-fluoro-benzyl)-1,4,5,6,7,8-hexahydro-cycloheptapyrazol-3-yl]-ethenesulfonic acid [(1S)-1-phenyl-ethyl]-amide] returned an EC50 at CB1 receptor (setting [1]) of approximately 3200 nM. The IC50 on CB2 receptor was 60 nM. Further, the “CB2 receptor binding percent inhibition” value on CB2 receptor (test concentration 0.2 μM (footnote 2), 0.2 µM) turned out to be 81%.
Broadly, the inhibition is the drop in the measured response relative to a control, in per cent. At CB1 receptor (setting [1]), `C[C@H](NS(=O)(=O)/C=C/c1n[nH]c2c1CCCC/C2=C\c1ccc(Cl)cc1)c1ccccc1` [Cpd 237, (2E,8E)-2-[8-(4-chloro-benzylidene)-1,4,5,6,7,8-hexahydro-cycloheptapyrazol-3-yl]-ethenesulfonic acid [(1S)-1-phenyl-ethyl]-amide] displayed an EC50 of 3600 nM. The IC50 at CB2 receptor was 100 nM. Further, on CB2 receptor (test concentration 0.2 μM (footnote 2), read-out: CB2 receptor binding percent inhibition), the inhibition at 0.2 µM amounted to 64%.
